Test results from US6602514B1, “Use of ectoine or ectoine derivatives in cosmetic formulations” (Merck Patent GmbH, priority 1998, dated 2003).

Columns and labels:
[1] = tested on: skin barrier (forearm skin of the subjects); experiment: In vivo determination of the transepidermal water loss (TEWL) following damage to the skin barrier by SDS treatment; design: species or system human; settings: N=5; for TEWL after SDS stress: then 2% SDS, occlusion 24 h; for TEWL after ectoin treatment for 1 week: 2 mg/cm^2 twice daily, forearm; for TEWL before treatment: baseline, 22° C., 60% humidity
Procedure: Using the skincare creams (0/W) comprising ectoin described in. Example 4, an in vivo determination of the transepidermal water loss (TEWL) following damage to the skin barrier by SDS treatment is carried out. Firstly, the skin of the subjects (N=5) on the forearm is treated for one week twice daily with the O/W emulsion (2 mg/cm^2) comprising 2% and 5% of ectoin and an emulsion without ectoin (placebo). In order to increase the TEWL artificially as a result of damage to the horny barrier, the skin is then treated with 80 μl of sodium dodecyl sulfate (SDS; 2% in water) in an aluminum chamber with occlusion for 24 h. The TEWL determination is carried out in a climatically controlled room at 22° C. and an atmospheric humidity of 60% using a TM210 TEWA meter. […] The values for FIG. 1 are given in Tab. 1.

human erythrocytes = experiment: RBC test: membrane-stabilizing action on ectoin pretreated erythrocytes against SDS; type: cell-based
Procedure: To determine the cell membrane- and protein-damaging action of surfactants, the RBC Test can, for example, be used. For this, the erythrocytes are incubated e.g. with sodium dodecyl sulfate (SDS), for example for a period of 10 minutes. SDS destabilizes the membrane of untreated cells such that the cells are partially lysed and their contents such as the hemoglobin are released. The hemoglobin released during cell-wall damage serves as an indicator for the spectrophotometric determination of the membrane damage by SDS. By reference to the hemoglobin released, it is possible to determine the number of destroyed erythrocytes.
Using an aqueous ectoin solution buffered in PBS buffer (22.2 mmol/l of disodium hydrogenphosphate, 5.6 mmol/l of potassium dihydrogenphosphate, 123.3 mmol/l of sodium chloride and 10 mmol/l of glucose), a determination of the membrane-stabilizing action of ectoin pretreated human erythrocytes against SDS is carried out. The RBC test is used here. The percentage membrane stabilization of cells pretreated with ectoin is determined.
(§1) Human erythrocytes (2×10^8 cells/ml) are treated for 1 hour with 0%, 0.1%, 0.5%, 1% and 5% of ectoin. The cells are then stressed for 10 min with 0 to 0.04% SDS solution. Then, spectrophotometry is used to determine how many cells have been lysed by reference to the free hemoglobin content. […] The experiment is carried out N=5 times.
as §1, with “In addition, human” for “Human”, “treated with 1% of ectoin” for “treated”, “0 (control), 6, 18” for “1 hour with 0%, 0.1%, 0.5%, 1%”, “24 hours.” for “5% of ectoin.”, “0.04% of” for “0.04%”

For `CC1=N[C@H](C(=O)O)CCN1` [ectoin, (S)-1,4,5,6-tetrahydro-2-methyl-4-pyrimidecarboxylic acid], the “TEWL after SDS stress” value ([1]; O/W emulsion with 2% of ectoin for 1 week) was 14.2 g/m^2/h, the “TEWL after ectoin treatment for 1 week” value ([1]; O/W emulsion with 2% of ectoin) was 5.6 g/m^2/h and the “TEWL after SDS stress” value ([1]; O/W emulsion with 5% of ectoin for 1 week) was 10.8 g/m^2/h. For the same molecule, the “TEWL after ectoin treatment for 1 week” value ([1]; O/W emulsion with 5% of ectoin) was 5.6 g/m^2/h, the TEWL before treatment ([1]; test area for the O/W emulsion with 2% of ectoin) was 5.6 g/m^2/h and the TEWL before treatment ([1]; test area for the O/W emulsion with 5% of ectoin) was 5.1 g/m^2/h. The “dependence of the protective effect on ectoin concentration” value (human erythrocytes; 0.1%, 0.5%, 1%, 5% of ectoin, 1 hour, FIG. 3) was “The higher the ectoin concentration, the greater the protective effect”, the “dependence of the protective effect on duration of pretreatment” value (human erythrocytes; 1% of ectoin for 6, 18, 24 hours, FIG. 4) was “The longer the cells are pretreated with ectoin, the greater the protective effect” and the “protection of erythrocytes against membrane damage by SDS” value (human erythrocytes; 1 hour pretreatment with 0.1-5% of ectoin, 10 min 0 to 0.04% SDS, FIG. 3) was “protects the cells against damage by SDS”.
